Measured values taken from article PMC5866846 (Archives of Toxicology, 2017).

Experiments:
[1] = system: upcyte hepatocytes 653-03; experiment: Tam metabolism in upcyte hepatocytes 653-03 (parental), metabolites in culture medium; type: in vitro ADME, human; conditions: 1 µM Tam, 653-03 cells
Protocol: (§1) The medium was replaced every 2–3 days. […].
(§2) The culture medium was collected after 24, 48, 72, 96 and 144 h followed by metabolite measurements using HPLC-ESI-MS/MS.
(§3) Protein was precipitated by the addition of ACN containing 1% of acetic acid and the corresponding deuterated internal standards to the same volume of the sample followed by centrifugation at 20.000 g for 15 min at RT. […] Analytes were separated on a Zorbax Eclipse Plus C18 column (1.8 µm, 100 × 2.1 mm, Agilent technologies) and detected on a 6460 triple quadrupole mass spectrometer (Agilent technologies) in positive ESI MRM mode. Glucuronides of estrogen-like metabolites were detected separately via MS/MS-measurements in negative ESI MRM mode.
(§4) […]. […] […].

[2] = system: upcyte hepatocytes 653-03 2D6; experiment: Tam metabolism in upcyte hepatocytes 653-03 2D6, metabolites in culture medium; type: in vitro ADME, human
Protocol: as §1, §2, §3, §4

CYP1A2 = CYP1A2 activity in upcyte hepatocytes after treatment (probe substrate cocktail); conditions: for EC50 at 72 h: human, EC50 of induction of CYP1A2 activity, 50 pM to 5 µM
Protocol: (§5) Cells were cultivated in hepatocyte culture medium at 37 °C and 5 °% CO2 in a humidified incubator. Before starting experiments, cells were cultivated in hepatocyte culture medium containing 0.5% (v/v) DMSO (Preculture medium) for 5 days (density of 0.8 × 10^4 cells/cm^2) and were subcultivated in high-performance medium containing 0.1% (v/v) DMSO (Metabolism conditioning medium) for 3–5 days (density of 1.6 × 10^5 cells/cm^2, confluence). The medium was replaced every 2–3 days.
(§6) In HLM and supersome™ incubations the formation rate is given as nmol µg^−1 min^−1 and fmol pmol^−1 min^−1, respectively, and was calculated as the mean ± SD. […] The intrinsic Clearance (Clint) was given as Vmax/Km ratio. […] Activity of CYP enzymes in induction assays is given as the fold-change (mean ± SD) compared to the corresponding DMSO-treated control. […] Gene expression patterns of treated cells are given as fold-change compared to the corresponding DMSO-treated control samples, as described above. […] In induction and inhibition experiments corresponding EC50 and IC50 values were calculated by nonlinear regression. In all experiments a level of probability (p) ≤ 0.05 for statistical testing was considered significant.
(§7) As control 0.05 % DMSO was used. The basal CYP activity and induction of CYP activity compared to the DMSO control were measured via HPLC-ESI-MS/MS.

CYP2B6 = CYP2B6 activity in upcyte hepatocytes after treatment (probe substrate cocktail); conditions: human, probe bupropion (25 µM)
Protocol: as §5, §6, §7

CYP3A4 = CYP3A4 activity in upcyte hepatocytes after treatment (probe substrate cocktail); conditions: 72 h; for EC50 at 72 h: human, probe atorvastatin (35 µM), EC50 of induction of CYP3A4 activity, upcyte hepatocytes, 50 pM to 5 µM
Protocol: as §5, §6, §7

[3] = system: CYP1A2, 2C19, 2C9, 2B6, 3A4 and 2C8; experiment: CYP activity in upcyte hepatocytes after treatment, all tested CYP isoenzymes together; type: cell-based, human; conditions: 5 µM, 72 h
Protocol: as §5, §6

CYP3A4 gene expression = CYP3A4 gene expression in upcyte hepatocytes (Fluidigm RT-PCR); conditions: 5 µM, 72 h, both cell strains
Excerpt: (§8) Total RNA was isolated from cells using the Direct-zol™ RNA MiniPrep kit (Zymo Research Corp., Irvine, California). cDNA was synthesized using TaqMan Reverse Transcription Reagents (Life technologies, Applera GmbH, Darmstadt, Germany) and the expression of 25 genes representative of phase I and phase II drug metabolism and transport was quantified by Fluidigm’s BioMark HD high-throughput quantitative chip platform (Fluidigm Corporation, San Francisco, USA). For relative gene expression analysis, the delta-delta-Ct (ΔΔCt) method was used: the Ct values of the target mRNA were first normalized to those of the endogenous control glyceraldehyde-3-phosphate dehydrogenase (GAPDH) followed by dividing values of experimental samples by their corresponding DMSO-treated controls to calculate the x-fold changes of mRNA expression.
as §6, §7

CYP1A1 gene expression = CYP1A1 gene expression in upcyte hepatocytes (Fluidigm RT-PCR); type: cell-based, human; conditions: 5 µM, 72 h, both cell strains
Excerpt: (§9) Differences between induced and control samples were compared using Welch’s t-test (GraphPad Prism, version 5.04), when the fold-change was considered biologically relevant (1.5-fold increase or decrease in fold-changes) and corrected for multiple testing according to Bonferroni. […] An unpaired t-test assuming unequal variances was used for testing of differences in the expression patterns, when the fold-change was considered biologically relevant (1.5-fold increase or decrease in fold-changes) and corrected using Bonferroni adjustments.

SLC10A1 gene expression = SLC10A1 gene expression in upcyte hepatocytes (Fluidigm RT-PCR); type: cell-based, human; conditions: 5 µM, 72 h, both cell strains
Excerpt: as §9

ABCG2 gene expression = ABCG2 gene expression in upcyte hepatocytes (Fluidigm RT-PCR); type: cell-based, human; conditions: 5 µM, 72 h, both cell strains
Excerpt: as §9

SLC22A7 gene expression = SLC22A7 gene expression in upcyte hepatocytes (Fluidigm RT-PCR); type: cell-based, human; conditions: 5 µM, 72 h, both cell strains
Excerpt: as §8
In HLM and supersome™ incubations the formation rate is given as nmol µg^−1 min^−1 and fmol pmol^−1 min^−1, respectively, and was calculated as the mean ± SD. […] The intrinsic Clearance (Clint) was given as Vmax/Km ratio. […] In induction and inhibition experiments corresponding EC50 and IC50 values were calculated by nonlinear regression. […]
as §7

estrogen receptor = system: estrogen receptor; set-up: method as in Johnson et al. [1989]; Murphy et al. [1990]; conditions: in vitro, estrogen-dependent breast cancer cell lines; ref Johnson et al. [1989]; Murphy et al. [1990]; cited from earlier work
CYP2C8 = biological target: T1, CYP2C8 (Homo sapiens, UniProt P10632); experiment: CYP2C8 activity in upcyte hepatocytes after treatment (probe substrate cocktail); type: cell-based; set-up: host or cells: upcyte hepatocytes 653-03 and 653-03 #138 (653-03 2D6); conditions: upcyte hepatocytes, 50 pM to 5 µM, read-out: EC50 of induction of CYP2C8 activity
T1 sequence (P10632 1-490): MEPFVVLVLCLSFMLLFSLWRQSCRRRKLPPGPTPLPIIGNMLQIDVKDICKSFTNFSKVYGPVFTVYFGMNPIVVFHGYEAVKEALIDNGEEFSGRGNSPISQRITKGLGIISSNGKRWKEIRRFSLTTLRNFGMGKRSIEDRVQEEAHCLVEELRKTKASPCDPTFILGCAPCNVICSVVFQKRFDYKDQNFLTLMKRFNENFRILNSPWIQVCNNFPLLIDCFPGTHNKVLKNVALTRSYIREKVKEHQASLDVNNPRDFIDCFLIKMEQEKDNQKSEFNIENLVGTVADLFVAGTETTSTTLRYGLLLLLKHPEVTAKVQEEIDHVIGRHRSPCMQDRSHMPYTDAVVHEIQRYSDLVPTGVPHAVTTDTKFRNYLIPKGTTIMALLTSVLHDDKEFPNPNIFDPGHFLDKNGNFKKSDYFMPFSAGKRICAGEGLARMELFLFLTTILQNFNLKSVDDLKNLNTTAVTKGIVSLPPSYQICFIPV
Protocol: as §5, §6, §7

CYP2C9 = CYP2C9 (Homo sapiens, UniProt P11712); experiment: CYP2C9 activity in upcyte hepatocytes after treatment (probe substrate cocktail); type: cell-based; set-up: host or cells: upcyte hepatocytes 653-03 and 653-03 #138 (653-03 2D6); conditions: 72 h
Sequence of CYP2C9 (P11712 whole entry): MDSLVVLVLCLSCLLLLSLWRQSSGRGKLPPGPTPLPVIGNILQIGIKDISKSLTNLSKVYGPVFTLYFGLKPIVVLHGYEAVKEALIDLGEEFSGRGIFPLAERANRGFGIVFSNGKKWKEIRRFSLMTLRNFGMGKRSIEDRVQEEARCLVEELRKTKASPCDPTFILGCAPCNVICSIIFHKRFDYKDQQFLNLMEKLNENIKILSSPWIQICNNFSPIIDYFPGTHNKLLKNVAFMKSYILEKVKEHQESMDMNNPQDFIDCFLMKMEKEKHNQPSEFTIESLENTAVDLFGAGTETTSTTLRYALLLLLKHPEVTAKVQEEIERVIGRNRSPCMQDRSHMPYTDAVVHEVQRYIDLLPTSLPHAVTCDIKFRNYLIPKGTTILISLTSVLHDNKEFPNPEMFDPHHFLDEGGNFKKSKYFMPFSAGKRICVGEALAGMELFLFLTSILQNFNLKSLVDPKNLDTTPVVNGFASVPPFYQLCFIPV
Protocol: as §5, §6, §7

CYP2C19 = CYP2C19 (Homo sapiens, UniProt P33261); experiment: CYP2C19 activity in upcyte hepatocytes after treatment (probe substrate cocktail); type: cell-based; set-up: host or cells: upcyte hepatocytes 653-03 and 653-03 #138 (653-03 2D6); conditions: upcyte hepatocytes, 50 pM to 5 µM, read-out: EC50 of induction of CYP2C19 activity
Sequence of CYP2C19 (P33261 whole entry): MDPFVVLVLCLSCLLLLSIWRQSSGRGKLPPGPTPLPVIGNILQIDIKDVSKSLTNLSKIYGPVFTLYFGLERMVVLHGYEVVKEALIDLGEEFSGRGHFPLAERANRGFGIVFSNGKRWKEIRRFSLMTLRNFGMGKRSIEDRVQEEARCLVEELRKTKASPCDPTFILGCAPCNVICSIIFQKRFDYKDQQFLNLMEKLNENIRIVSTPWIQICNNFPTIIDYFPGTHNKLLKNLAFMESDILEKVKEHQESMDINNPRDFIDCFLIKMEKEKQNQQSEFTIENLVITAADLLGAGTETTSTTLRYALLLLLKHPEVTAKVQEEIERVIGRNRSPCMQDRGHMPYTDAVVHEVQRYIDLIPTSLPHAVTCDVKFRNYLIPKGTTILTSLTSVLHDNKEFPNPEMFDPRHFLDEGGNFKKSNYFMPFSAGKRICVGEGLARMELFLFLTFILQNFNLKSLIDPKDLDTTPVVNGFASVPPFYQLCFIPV
Protocol: as §5, §6, §7

[4] = Formation of Met E and Tam-Bis from precursors in pooled human liver microsomes with and without NADPH-regenerating system; type: in vitro ADME; conditions: DM-Tam, DDM-Tam, 50 µM, pooled HLM
Protocol: The reaction was started by adding a NADPH regenerating system (5 mM MgCl2, 5 mM glucose-6-phosphate, 0.5 mM NADP^+ and 10 U glucose-6-phosphate-dehydrogenase in 100 mM sodium phosphate buffer pH 7.4) to the samples and immediately put in a 37 °C water bath for 30 min. The reaction was stopped with the same volume of acetonitrile (ACN) containing 1% of acetic acid together with the corresponding deuterated internal standards. Regarding incubations with Supersomes™ containing UGTs, 5 µg of protein was incubated with 250 mM MgCl2 and 2.5 ng of alamethicin for 30 min on ice, followed by 10 min at 37 °C in a water bath. […] Metabolites were analyzed by HPLC-ESI-MS/MS.
Protein was precipitated by the addition of ACN containing 1% of acetic acid and the corresponding deuterated internal standards to the same volume of the sample followed by centrifugation at 20.000 g for 15 min at RT. […] Analytes were separated on a Zorbax Eclipse Plus C18 column (1.8 µm, 100 × 2.1 mm, Agilent technologies) and detected on a 6460 triple quadrupole mass spectrometer (Agilent technologies) in positive ESI MRM mode. Glucuronides of estrogen-like metabolites were detected separately via MS/MS-measurements in negative ESI MRM mode. […]

[5] = Formation kinetics of Tam-Bis, (Z)- and (E)-Met E in HLM with increasing substrate concentrations; type: in vitro ADME, human; conditions: substrate 1 to 50 µM, Michaelis-Menten
Protocol: The reaction was started by adding a NADPH regenerating system (5 mM MgCl2, 5 mM glucose-6-phosphate, 0.5 mM NADP^+ and 10 U glucose-6-phosphate-dehydrogenase in 100 mM sodium phosphate buffer pH 7.4) to the samples and immediately put in a 37 °C water bath for 30 min. The reaction was stopped with the same volume of acetonitrile (ACN) containing 1% of acetic acid together with the corresponding deuterated internal standards. Regarding incubations with Supersomes™ containing UGTs, 5 µg of protein was incubated with 250 mM MgCl2 and 2.5 ng of alamethicin for 30 min on ice, followed by 10 min at 37 °C in a water bath. Subsequently, the Supersomes™ were incubated with 10 µM of substrates (Tam-Bis, (E)- and (Z)-Met E) and the glucuronidation was started by addition of 10 mM of uridine 5′-diphospho-glucuronic acid to the samples in a water bath at 37 °C for 30 min. The reaction was stopped as described above. Metabolites were analyzed by HPLC-ESI-MS/MS.
For the assessment of formation kinetics of Tam-Bis, (E)- and (Z)-Metabolite E, HLM were incubated with increasing substrate concentrations ranging from 1 to 50 µM as described above. As control for each concentration a sample without NADPH-regenerating system was prepared. […]

[6] = system: single CYP isoenzymes (Supersomes); experiment: Formation of estrogen-like metabolites in Supersomes specific for single CYP isoenzymes; type: in vitro ADME; conditions: 50 µM precursors
Excerpt: Supersomes™ were obtained from Corning Incorporated, Wiesbaden, Germany, and were specific for CYP isoenzymes CYP1A1, 1A2, 2A6, 2B6, 2C8, 2C9, 2C19, 2D6, 3A4, 3A5 and 19A1. All Supersomes™ contained oxidoreductase. Cytochrome b5 was present in the Supersomes™ of CYP2A6, 2B6, 2C8, 2C9, 3A4 and 3A5. UDP-glucuronosyltransferases (UGT)containing Supersomes™ were specific for the following isoenzymes: 1A1, 1A2, 1A3, 1A4, 1A6, 1A7, 1A8, 1A9, 1A10, 2B4, 2B7, 2B10, 2B15 and 2B17.
The reaction was started by adding a NADPH regenerating system (5 mM MgCl2, 5 mM glucose-6-phosphate, 0.5 mM NADP^+ and 10 U glucose-6-phosphate-dehydrogenase in 100 mM sodium phosphate buffer pH 7.4) to the samples and immediately put in a 37 °C water bath for 30 min. The reaction was stopped with the same volume of acetonitrile (ACN) containing 1% of acetic acid together with the corresponding deuterated internal standards. […] Metabolites were analyzed by HPLC-ESI-MS/MS.
Protein was precipitated by the addition of ACN containing 1% of acetic acid and the corresponding deuterated internal standards to the same volume of the sample followed by centrifugation at 20.000 g for 15 min at RT. […] Glucuronides of estrogen-like metabolites were detected separately via MS/MS-measurements in negative ESI MRM mode.

[7] = system: upcyte hepatocytes 653-03 and 653-03 2D6; experiment: Tam metabolism in upcyte hepatocytes, cell strain not distinguished; type: in vitro ADME, human; conditions: 1 µM Tam, all time points
Protocol: as §1, §2, §3, §4

With CCC(=C(c1ccc(O)cc1)c1ccc(O)cc1)c1ccccc1 [Tam-Bis, 4-[1-(4-hydroxyphenyl)-2-phenylbut-1-en-1-yl]phenol] the “concentration in the supernatant” value [1] was 0.0306 nM, the “concentration in the supernatant” value ([2]; 1 µM Tam, 653-03 2D6 cells) was “up to 87.5 pM” and the “concentration in the supernatant of 653-03 2D6 cells relative to parental cells” value ([2]; cells incubated with 1 µM Tam up to 144 h) was “up to 4 times”. The EC50 at 72 h (CYP1A2) was greater than 400 nM, the EC50 (CYP1A2; read-out: EC50 of induction of CYP1A2 activity, 72 h, 50 pM to 5 µM) was 518 nM and the EC50 at 72 h (CYP2B6) was 187 nM. For the same molecule, the EC50 at 72 h (CYP3A4) was 178 nM, the “inhibitory effect on the tested CYP enzymes” value [3] was “no inhibitory effect” and the “CYP3A4 gene expression, induction vs DMSO control” value (CYP3A4 gene expression) was “up to 4.5 fold”. For the same molecule, the “CYP3A4 gene expression, induction vs DMSO control” value (CYP3A4 gene expression; listed as tamoxifen bisphenol) was “up to 5.6 fold”, the “CYP1A1 gene expression, induction vs DMSO control” value (CYP1A1 gene expression) was “up to 4.5 fold” and the “SLC10A1 gene expression, downregulation (fold lower)” value (SLC10A1 gene expression) was “up to 2.5 fold”. For the same molecule, the “ABCG2 gene expression, induction vs DMSO control” value (ABCG2 gene expression) was “up to 4.5 fold”, the “SLC22A7 gene expression, fold lower than DMSO control” value (SLC22A7 gene expression) was “up to 2.5 fold” and the “agonism regarding estrogen-regulated mRNA expression” value (estrogen receptor) was “full agonists”. The EC50 (CYP2C8; 72 h) was 400 nM, the EC50 (CYP2C9; upcyte hepatocytes, 50 pM to 5 µM, read-out: EC50 of induction of CYP2C9 activity) was 488 nM and the EC50 (CYP2C19; 72 h) was 30.5 nM.
With CCC(=C(c1ccccc1)c1ccc(O)cc1)c1ccccc1 [(E)-Met E, 4-[1,2-diphenylbut-1-en-1-yl]phenol] the “formation rate of the (E)-isomer compared to (Z)-Met E” value [4] was “approximately 10%”, the “V max, Bisphenol formation” value [5] was 8.1 pmol/mg/min and the Km ([5]; read-out: Km, Bisphenol formation) was 10.4 µM. For the same molecule, the “formation rates lower than those of the (Z)-isomer” value [6] was “approximately 10 times”, the “concentration of the (E)-isomer relative to (Z)-Met E” value [7] was “about 10%” and the EC50 at 72 h (CYP1A2) was greater than 5000 nM. For the same molecule, the EC50 at 72 h (CYP2B6) was greater than 5000 nM, the “induction of CYP3A4 activity compared to DMSO control” value (CYP3A4; 5 µM, parental and derived cell line) was “weakly induced” and the EC50 at 72 h (CYP3A4) was 277 nM. The “CYP3A4 gene expression, induction vs DMSO control” value (CYP3A4 gene expression) was “up to 5.6 fold”, the “agonism regarding estrogen-regulated mRNA expression” value (estrogen receptor) was “full agonists” and the EC50 at 72 h (CYP2C8; human, probe amodiaquine (5 µM)) was greater than 5000 nM. For the same molecule, the “induction of CYP2C9 activity” value (CYP2C9; 5 µM) was “weakly induced” and the EC50 at 72 h (CYP2C19; human, probe S-mephenytoin (100 µM)) was greater than 5000 nM.
